Values quoted from earlier work, collected in patent publication US20210251886A1, “ORAL MUCOSAL DELIVERY SYSTEMS COMPRISING MONOPHASIC CONCENTRATE OF TERIPARATIDE” (ZIM LABORATORIES LIMITED, priority 2018, published 2021).
Like-named read-outs stand apart in the source and are kept apart here.

Settings: dogs

## CC[C@H](C)[C@H](NC(=O)[C@H](CCC(=O)O)NC(=O)[C@H](CO)NC(=O)[C@@H](NC(=O)[C@@H](N)CO)C(C)C)C(=O)N[C@@H](CCC(N)=O)C(=O)N[C@@H](CC(C)C)C(=O)N[C@@H](CCSC)C(=O)N[C@@H](Cc1cnc[nH]1)C(=O)N[C@@H](CC(N)=O)C(=O)N[C@@H](CC(C)C)C(=O)NCC(=O)N[C@@H](CCCCN)C(=O)N[C@@H](Cc1cnc[nH]1)C(=O)N[C@@H](CC(C)C)C(=O)N[C@@H](CC(N)=O)C(=O)N[C@@H](CO)C(=O)N[C@@H](CCSC)C(=O)N[C@@H](CCC(=O)O)C(=O)N[C@@H](CCCN=C(N)N)C(=O)N[C@H](C(=O)N[C@@H](CCC(=O)O)C(=O)N[C@@H](Cc1c[nH]c2ccccc12)C(=O)N[C@@H](CC(C)C)C(=O)N[C@@H](CCCN=C(N)N)C(=O)N[C@@H](CCCCN)C(=O)N[C@@H](CCCCN)C(=O)N[C@@H](CC(C)C)C(=O)N[C@@H](CCC(N)=O)C(=O)N[C@@H](CC(=O)O)C(=O)N[C@H](C(=O)N[C@@H](Cc1cnc[nH]1)C(=O)N[C@@H](CC(N)=O)C(=O)N[C@@H](Cc1ccccc1)C(=O)O)C(C)C)C(C)C [PTH (1-34)]
Buccal route
  bioavailability: about 3.3%
Oral route
  bioavailability: 4.8%
